Assay results reported in patent publication US20150175530A1, “ANTIBACTERIAL AGENTS” (priority 2012, published 2015).
Values after ≈ are worked out from the molar mass of the structure shown. Like-named read-outs stand apart in the source and are kept apart here.

Legend:
[1] = system: bacterial isolates (clinical isolates and ATCC quality control strains); experiment: Minimum Inhibitory Concentrations (MICs) by broth microdilution (CLSI susceptibility testing); assay type: cell-based; details: broth microdilution
Summary of the method: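 Broth microdilution per CLSI in cation-adjusted Mueller-Hinton broth, 2-fold serial drug dilutions, final inoculum 3×10^5–7×10^5 CFU/mL. Plates incubated 18-24 h at 35 °C in ambient air; MIC is lowest concentration preventing visible growth (OD600 nm<0.05), with levofloxacin and QC strains monitoring performance.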

[2] = system: 3 P. aeruginosa strains (APAE001, APAE002, APAE006); experiment: Protein binding: fold change in MIC in the presence of 2% HSA and 0.05% AGP, Geomean of 3 strains; assay type: cell-based, Pseudomonas aeruginosa; details: MIC in the presence of 2% HSA and 0.05% AGP divided by MIC in the absence; Geomean of 3 P. aeruginosa strains (APAE001, APAE002, APAE006)
Summary of the method: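 MIC against each strain was determined by the standard broth method in cation-adjusted Mueller-Hinton broth with and without 2% HSA plus 0.05% AGP. Fold change is the MIC ratio with/without protein per strain; the value reported is the geometric mean over APAE001, APAE002 and APAE006.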

[3] = APAE1096 is a clinical isolate, read-out: Minimum Inhibitory Concentrations (MICs) APAE1096
[4] = Pseudomonas aeruginosa, APAE002 is a wildtype lab strain of Pseudomonas aeruginosa known as PAM1020 or PA01, read-out: Minimum Inhibitory Concentrations (MICs) APAE002
[5] = Pseudomonas aeruginosa, ATCC27853, APAE001 is Pseudomonas aeruginosa ATCC27853, read-out: Minimum Inhibitory Concentrations (MICs) APAE001

SMILES	MIC [1, 3] [µg/mL]	MIC [1, 4] [µg/mL]	MIC [1, 5] [µg/mL]	Protein Binding PB (Geomean of fold change in MIC) [2]
C[C@@H](CO)[C@H](O)C#CC#Cc1ccc(C(=O)N[C@H](C(=O)NO)C(C)(C)N)cc1 [Compound 53, N—((S)-3-amino-1-(hydroxyamino)-3-methyl-1-oxobutan-2-yl)-4-((5S,6S)-5,7-dihydroxy-6-methylhepta-1,3-diyn-1-yl)benzamide]	8 to 16 (≈ 20.6 to 41.3 µM)	1 to 8 (≈ 2.58 to 20.6 µM)	1 to 8 (≈ 2.58 to 20.6 µM)	2.0
CC(C)(N)[C@H](NC(=O)c1ccc(C#CC#C[C@@H](O)CCO)cc1)C(=O)NO [Compound 54, N—((S)-3-amino-1-(hydroxyamino)-3-methyl-1-oxobutan-2-yl)-4-((S)-5,7-dihydroxyhepta-1,3-diyn-1-yl)benzamide]	8 to 16 (≈ 21.4 to 42.8 µM)	< 1	< 1	2.0
CC(C)(N)[C@H](NC(=O)c1ccc(C#C/C=C/CCO)cc1)C(=O)NO [Compound 55, (S,E)-N-(3-amino-1-(hydroxyamino)-3-methyl-1-oxobutan-2-yl)-4-(6-hydroxyhex-3-en-1-yn-1-yl)benzamide]	1 to 8 (≈ 2.9 to 23.2 µM)	< 1	< 1	2.0
CN[C@H](C)[C@H](NC(=O)c1ccc(C#CC#CCO)cc1)C(=O)NO [Compound 56, N-((2S,3R)-1-(hydroxyamino)-3-(methylamino)-1-oxobutan-2-yl)-4-(5-hydroxypenta-1,3-diyn-1-yl)benzamide]	1 to 8 (≈ 3.04 to 24.3 µM)	< 1	< 1	2.5
CC(C)(N)[C@H](NC(=O)c1ccc(C#CC#CC2(O)CCC(CO)C2)cc1)C(=O)NO (stereo partly drawn) [Compound 57, N—((S)-3-amino-1-(hydroxyamino)-3-methyl-1-oxobutan-2-yl)-4-((1-hydroxy-3-(hydroxymethyl)cyclopentyl)buta-1,3-diyn-1-yl)benzamide]	1 to 8 (≈ 2.42 to 19.3 µM)	< 1	< 1	1.6
CC(C)(N)[C@H](NC(=O)c1ccc(C#C/C=C/C(O)CO)cc1)C(=O)NO (stereo partly drawn) [Compound 58, N—((S)-3-amino-1-(hydroxyamino)-3-methyl-1-oxobutan-2-yl)-4-((E)-5,6-dihydroxyhex-3-en-1-yn-1-yl)benzamide]	8 to 16 (≈ 22.1 to 44.3 µM)	1 to 8 (≈ 2.77 to 22.1 µM)	1 to 8 (≈ 2.77 to 22.1 µM)	1.0
C[C@H](O)C#CC#Cc1ccc(C(=O)N[C@H](C(=O)NO)[C@@H](N)C(F)(F)F)cc1 [Compound 59, N-((2S,3R)-3-amino-4,4,4-trifluoro-1-(hydroxyamino)-1-oxobutan-2-yl)-4-((S)-5-hydroxyhexa-1,3-diyn-1-yl)benzamide]	1 to 8 (≈ 2.61 to 20.9 µM)	< 1	1 to 8 (≈ 2.61 to 20.9 µM)	3.2
CC(C)(N)[C@H](NC(=O)c1ccc(C#CC#C[C@H](O)CO)cc1)C(=O)NO [Compound 61, N—((S)-3-amino-1-(hydroxyamino)-3-methyl-1-oxobutan-2-yl)-4-((S)-5,6-dihydroxyhexa-1,3-diyn-1-yl)benzamide]	1 to 8 (≈ 2.78 to 22.3 µM)	< 1	< 1	1.6
CC(C)(N)[C@H](NC(=O)c1ccc(C#CC#C[C@@H](O)CO)cc1)C(=O)NO [Compound 62, N—((S)-3-amino-1-(hydroxyamino)-3-methyl-1-oxobutan-2-yl)-4-((R)-5,6-dihydroxyhexa-1,3-diyn-1-yl)benzamide]	1 to 8 (≈ 2.78 to 22.3 µM)	< 1	< 1	2.0
